Peptide text beside a SMILES is read from it.
Assays:
[1] = Biological half life when administered at 0.1 umol/kg intravenously to guinea pig in GR-64349 antagonism; type: ADME, organism-based, Cavia porcellus; details: in vivo, iv
[2] = target: T1, Substance-K receptor (Cavia porcellus) (UniProt Q64077); assay: The compound was tested […] for antagonism against neurokinin NK2 receptor in isolated guinea pig trachea.; type: functional
T1 sequence (whole entry): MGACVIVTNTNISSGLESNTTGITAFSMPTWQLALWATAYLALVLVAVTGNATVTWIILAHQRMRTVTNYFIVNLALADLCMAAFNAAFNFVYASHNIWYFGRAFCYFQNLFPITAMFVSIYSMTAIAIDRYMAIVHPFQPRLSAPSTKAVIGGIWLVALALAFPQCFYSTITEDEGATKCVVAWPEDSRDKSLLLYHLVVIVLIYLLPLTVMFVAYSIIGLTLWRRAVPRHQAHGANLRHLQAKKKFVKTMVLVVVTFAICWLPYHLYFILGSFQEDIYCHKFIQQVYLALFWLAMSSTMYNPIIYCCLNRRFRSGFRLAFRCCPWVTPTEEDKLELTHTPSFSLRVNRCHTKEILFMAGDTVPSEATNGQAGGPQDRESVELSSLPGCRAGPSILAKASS

[3] = target: Substance-P receptor (Cavia porcellus) (UniProt P30547); assay: The compound was tested […] for antagonism against neurokinin NK1 receptor in isolated guinea pig trachea.; type: functional
[4] = target: T2, Substance-K receptor (Rattus norvegicus) (UniProt P16610); assay: In vitro for antagonism against neurokinin NK2 receptor in rat colon muscularis mucosae; type: functional, tissue-based; details: Muscularis mucosa
T2 sequence (whole entry): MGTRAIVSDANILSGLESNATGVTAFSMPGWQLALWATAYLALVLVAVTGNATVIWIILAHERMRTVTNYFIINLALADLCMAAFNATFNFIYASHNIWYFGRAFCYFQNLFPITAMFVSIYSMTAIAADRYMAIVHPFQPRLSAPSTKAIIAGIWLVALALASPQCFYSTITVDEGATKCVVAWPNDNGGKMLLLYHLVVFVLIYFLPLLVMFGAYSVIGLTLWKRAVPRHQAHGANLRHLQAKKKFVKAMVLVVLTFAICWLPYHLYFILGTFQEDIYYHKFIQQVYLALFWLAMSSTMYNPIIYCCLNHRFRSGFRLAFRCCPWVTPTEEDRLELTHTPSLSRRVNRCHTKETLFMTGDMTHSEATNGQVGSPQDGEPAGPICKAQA

[5] = target: T2, Substance-K receptor (Rattus norvegicus); assay: The compound was tested in vitro for antagonism against Tachykinin receptor 2 in rat colon muscularis mucosae.; type: functional, tissue-based; details: Muscularis mucosa
[6] = target: T1, Substance-K receptor (Cavia porcellus); assay: The compound was tested in vitro for antagonism against Tachykinin receptor 2 in isolated guinea pig trachea; type: functional, tissue-based
Oryctolagus cuniculus = organism: Oryctolagus cuniculus; assay: Tested for antagonistic activity of compound in endothelium-deprived rabbit pulmonary artery; type: functional; details: read-out: pA2 (converted)
[7] = Biological half life when administered at 5 umol/kg intravenously to guinea pig in GR-64349 antagonism; type: ADME, organism-based, Cavia porcellus; details: in vivo, iv

Substance-P receptor (Cavia porcellus), sequence (P30547 whole entry): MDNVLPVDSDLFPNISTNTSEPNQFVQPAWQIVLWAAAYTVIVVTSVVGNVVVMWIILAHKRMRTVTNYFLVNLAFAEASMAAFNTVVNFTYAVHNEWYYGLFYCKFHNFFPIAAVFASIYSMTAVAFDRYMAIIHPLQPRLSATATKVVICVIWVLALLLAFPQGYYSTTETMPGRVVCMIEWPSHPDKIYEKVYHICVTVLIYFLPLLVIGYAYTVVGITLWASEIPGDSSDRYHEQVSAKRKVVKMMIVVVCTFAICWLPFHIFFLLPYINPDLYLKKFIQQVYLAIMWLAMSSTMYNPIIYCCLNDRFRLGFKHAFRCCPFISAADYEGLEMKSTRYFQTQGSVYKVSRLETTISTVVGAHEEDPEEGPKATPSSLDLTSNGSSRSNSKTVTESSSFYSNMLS

Row | Structure (SMILES) | pKB [4] | also measured
1 | C[C@H](NC(=O)CNC(=O)C1CCCCC1)C(=O)N[C@H](Cc1c[nH]c2ccccc12)C(=O)N[C@@H](Cc1ccccc1)C(=O)N(C)C (HELM PEPTIDE1{[O=C(C1CCCCC1)[*:2]].G.A.[dW].F.[CN(C)[*:1]]}$$$$V2.0) | 9.05 | half-life [1]: 26 min; pKB [2]: 9.3; pKB [3]: 5.1
2 | C[C@H](NC(=O)c1ccccc1)C(=O)N[C@@H](C)C(=O)N[C@H](Cc1c[nH]c2ccccc12)C(=O)N[C@@H](Cc1ccccc1)C(=O)N(C)C | 8.56 | 
3 | C[C@H](NC(=O)c1ccccc1)C(=O)N[C@@H](C)C(=O)N[C@H](Cc1c[nH]c2ccccc12)C(=O)N[C@@H](Cc1ccccc1)C(=O)O | 6.6 | 
4 | CC(Cc1c[nH]c2ccccc12)NC(=O)[C@H](C)NC(=O)[C@H](C)NC(=O)c1ccccc1 (some centres not stated) | < 5 | pKB [5]: 6.66; pKB [6]: 7.4
5 | CC(C)CCN(C)C(=O)[C@@H](Cc1c[nH]c2ccccc12)NC(=O)[C@H](C)NC(=O)[C@H](C)NC(=O)c1ccccc1 | 8 | 
6 | C[C@H](NC(=O)c1ccccc1)C(=O)N[C@@H](C)C(=O)NCCc1c[nH]c2ccccc12 | 6.02 | 
7 | CC(=O)NC1(c2ccccc2)CCN(CC[C@H](CN(C)C(=O)c2ccccc2)c2ccc(Cl)c(Cl)c2)CC1 [SAREDUTANT] |  | Kb (Oryctolagus cuniculus): 50.1 pM
8 | C[C@H](NC(=O)c1ccccc1)C(=O)N[C@@H](C)C(=O)N[C@H](C#N)Cc1c[nH]c2ccccc12 | 6.8 | pKB [2]: 7.4; half-life [7]: 20 min
9 | C[C@H](NC(=O)c1ccccc1)C(=O)N[C@@H](C)C(=O)N[C@H](Cc1c[nH]c2ccccc12)C(=O)N(C)C | 6.45 | 
10 | C[C@H](NC(=O)c1ccccc1)C(=O)N[C@@H](C)C(=O)N[C@H](Cc1c[nH]c2ccccc12)C(=O)N(C)CCc1ccccc1 | 7.4 | 
11 | CC(C)CCN(C)C(=O)[C@@H](Cc1c[nH]c2ccccc12)NC(=O)[C@H](C)NC(=O)c1c[nH]c(-c2ccccc2)n1 | 7.64 | pKB [2]: 7.9; pKB [3]: 4.9; half-life [7]: 140 min
12 | C[C@H](NC(=O)CNC(=O)c1ccccc1)C(=O)N[C@H](Cc1c[nH]c2ccccc12)C(=O)N[C@@H](Cc1ccccc1)C(=O)N(C)C | 8.87 | 

— ChEMBL document CHEMBL1126481, “Low molecular weight neurokinin NK2 antagonists” (Bioorg Med Chem Lett, 1993)
